Measured values as given in ChEMBL document CHEMBL4002566, “S-substituted 3,5-dinitrophenyl 1,3,4-oxadiazole-2-thiols and tetrazole-5-thiols as highly efficient antitubercular agents” (Eur J Med Chem, 2017).
Converted amounts (≈) assume the structure as drawn.

Tests used:
Klebsiella pneumoniae [1] = assay: Antibacterial activity against Klebsiella pneumoniae HK11750/08 after 24 hrs by broth microdilution method; assay type: functional; details: HK11750/08, 24 h
Pichia kudriavzevii [2] = assay: Antifungal activity against Candida krusei E28 after 24 hrs by broth microdilution method; assay type: functional; details: E28, 24 h
Lichtheimia corymbifera [3] = assay: Antifungal activity against Absidia corymbifera 272 after 48 hrs by broth microdilution method; assay type: functional; details: Lichtheimia corymbifera, 272, 48 h
[4] = tested on: Trichophyton mentagrophytes; assay: Antifungal activity against Trichophyton mentagrophytes 445 after 72 hrs by broth microdilution method; assay type: functional; details: Trichophyton mentagrophytes, 445, 72 h
Lichtheimia corymbifera [5] = assay: Antifungal activity against Absidia corymbifera 272 after 24 hrs by broth microdilution method; assay type: functional; details: Lichtheimia corymbifera, 272, 24 h
A-431 = assay: Cytotoxicity against human A431 cells assessed as cell viability after 48 hrs by MTS assay; assay type: cell-based; details: A-431, 48 h
[6] = Cytotoxicity against human HuH7 cells assessed as cell viability at 30 uM after 48 hrs by MTS assay relative to control; assay type: cell-based, Huh-7; details: read-out: Activity
[7] = tested on: Trichophyton mentagrophytes; assay: Antifungal activity against Trichophyton mentagrophytes 445 after 120 hrs by broth microdilution method; assay type: functional; details: Trichophyton mentagrophytes, 445, 120 h
Enterococcus sp. [8] = assay: Antibacterial activity against Enterococcus sp. HK14365/08 after 48 hrs by broth microdilution method; assay type: functional; details: HK14365/08, 48 h
Staphylococcus aureus [9] = assay: Antibacterial activity against methicillin-resistant Staphylococcus aureus HK5996/08 after 24 hrs by broth microdilution method; assay type: functional; details: HK5996/08, 24 h
Escherichia coli [10] = assay: Antibacterial activity against Escherichia coli ATCC 8739 after 24 hrs by broth microdilution method; assay type: functional; details: ATCC 8739, 24 h
Escherichia coli [11] = assay: Antibacterial activity against Escherichia coli ATCC 8739 after 48 hrs by broth microdilution method; assay type: functional; details: ATCC 8739, 48 h
Mycobacterium kansasii [12] = assay: Antimycobacterial activity against Mycobacterium kansasii 6509/96 clinical isolate after 21 days by micromethod; assay type: functional; details: 6509/96, 504 h
Enterococcus sp. [13] = assay: Antibacterial activity against Enterococcus sp. HK14365/08 after 24 hrs by broth microdilution method; assay type: functional; details: HK14365/08, 24 h
Trichosporon asahii [14] = assay: Antifungal activity against Trichosporon asahii 1188 after 24 hrs by broth microdilution method; assay type: functional; details: Trichosporon asahii, 1188, 24 h
Candida albicans [15] = assay: Antifungal activity against Candida albicans ATCC 44859 after 24 hrs by broth microdilution method; assay type: functional; details: ATCC 44859, 24 h
Mycobacterium kansasii [16] = assay: Antimycobacterial activity against Mycobacterium kansasii CNCTC My 235/80 after 7 days by micromethod; assay type: functional; details: CNCTC My 235/80, 168 h
Klebsiella pneumoniae [17] = assay: Antibacterial activity against extended spectrum beta-lactamase producing Klebsiella pneumoniae HK14368/08 after 48 hrs by broth microdilution method; assay type: functional; details: HK14368/08, 48 h
Candida tropicalis [18] = assay: Antifungal activity against Candida tropicalis 156 after 24 hrs by broth microdilution method; assay type: functional; details: Candida tropicalis, 156, 24 h
Mycobacterium kansasii [19] = assay: Antimycobacterial activity against Mycobacterium kansasii 6509/96 clinical isolate after 7 days by micromethod; assay type: functional; details: 6509/96, 168 h
HepG2 = assay: Cytotoxicity against human HepG2 cells assessed as cell viability after 48 hrs by MTS assay; assay type: cell-based; details: HepG2, 48 h
[20] = Cytotoxicity against MDCK cells assessed as cell viability at 30 uM after 48 hrs by MTS assay relative to control; assay type: cell-based, Canis lupus familiaris; details: dog, read-out: Activity
Nakaseomyces glabratus [21] = assay: Antifungal activity against Candida glabrata 20/I after 48 hrs by broth microdilution method; assay type: functional
Trichosporon asahii [22] = assay: Antifungal activity against Trichosporon asahii 1188 after 48 hrs by broth microdilution method; assay type: functional; details: Trichosporon asahii, 1188, 48 h
Klebsiella pneumoniae [23] = assay: Antibacterial activity against extended spectrum beta-lactamase producing Klebsiella pneumoniae HK14368/08 after 24 hrs by broth microdilution method; assay type: functional; details: HK14368/08, 24 h
Candida albicans [24] = assay: Antifungal activity against Candida albicans ATCC 44859 after 48 hrs by broth microdilution method; assay type: functional; details: ATCC 44859, 48 h
Mycobacterium kansasii [25] = assay: Antimycobacterial activity against Mycobacterium kansasii CNCTC My 235/80 after 21 days by micromethod; assay type: functional; details: CNCTC My 235/80, 504 h
Pseudomonas aeruginosa [26] = assay: Antibacterial activity against Pseudomonas aeruginosa ATCC 9027 after 24 hrs by broth microdilution method; assay type: functional; details: ATCC 9027, 24 h
Staphylococcus aureus [27] = assay: Antibacterial activity against methicillin-resistant Staphylococcus aureus HK5996/08 after 48 hrs by broth microdilution method; assay type: functional; details: HK5996/08, 48 h
MDCK = assay: Cytotoxicity against MDCK cells assessed as cell viability after 48 hrs by MTS assay; assay type: cell-based; details: Canis lupus familiaris
Aspergillus fumigatus [28] = assay: Antifungal activity against Aspergillus fumigatus 231 after 48 hrs by broth microdilution method; assay type: functional; details: Aspergillus fumigatus, 231, 48 h
Mycobacterium kansasii [29] = assay: Antimycobacterial activity against Mycobacterium kansasii CNCTC My 235/80 after 14 days by micromethod; assay type: functional; details: CNCTC My 235/80, 336 h
Nakaseomyces glabratus [30] = assay: Antifungal activity against Candida glabrata 20/I after 24 hrs by broth microdilution method; assay type: functional
Huh-7 = assay: Cytotoxicity against human HuH7 cells assessed as cell viability after 48 hrs by MTS assay; assay type: cell-based; details: Huh-7, 48 h
Candida tropicalis [31] = assay: Antifungal activity against Candida tropicalis 156 after 48 hrs by broth microdilution method; assay type: functional; details: Candida tropicalis, 156, 48 h
Mycobacterium avium [32] = assay: Antimycobacterial activity against Mycobacterium avium CNCTC My 330/88 after 14 days by micromethod; assay type: functional; details: CNCTC My 330/88, 336 h
Pseudomonas aeruginosa [33] = assay: Antibacterial activity against Pseudomonas aeruginosa ATCC 9027 after 48 hrs by broth microdilution method; assay type: functional; details: ATCC 9027, 48 h
[34] = tested on: Mycobacterium tuberculosis; assay: Antimycobacterial activity against Mycobacterium tuberculosis CNCTC My 331/88 after 21 days by micromethod; assay type: functional; details: CNCTC My 331/88, 504 h
Staphylococcus aureus [35] = assay: Antibacterial activity against Staphylococcus aureus ATCC 6538 after 24 hrs by broth microdilution method; assay type: functional; details: ATCC 6538, 24 h
Mycobacterium avium [36] = assay: Antimycobacterial activity against Mycobacterium avium CNCTC My 330/88 after 21 days by micromethod; assay type: functional; details: CNCTC My 330/88, 504 h
Klebsiella pneumoniae [37] = assay: Antibacterial activity against Klebsiella pneumoniae HK11750/08 after 48 hrs by broth microdilution method; assay type: functional; details: HK11750/08, 48 h
[38] = tested on: Staphylococcus epidermidis; assay: Antibacterial activity against Staphylococcus epidermidis HK6996/08 after 48 hrs by broth microdilution method; assay type: functional; details: HK6996/08, 48 h
[39] = tested on: Staphylococcus epidermidis; assay: Antibacterial activity against Staphylococcus epidermidis HK6996/08 after 24 hrs by broth microdilution method; assay type: functional; details: HK6996/08, 24 h
Mycobacterium kansasii [40] = assay: Antimycobacterial activity against Mycobacterium kansasii 6509/96 clinical isolate after 14 days by micromethod; assay type: functional; details: 6509/96, 336 h
Pichia kudriavzevii [41] = assay: Antifungal activity against Candida krusei E28 after 48 hrs by broth microdilution method; assay type: functional; details: E28, 48 h
[42] = Cytotoxicity against human HepG2 cells assessed as cell viability at 30 uM after 48 hrs by MTS assay relative to control; assay type: cell-based; details: read-out: Activity
[43] = tested on: Mycobacterium tuberculosis; assay: Antimycobacterial activity against Mycobacterium tuberculosis CNCTC My 331/88 after 14 days by micromethod; assay type: functional; details: CNCTC My 331/88, 336 h
Aspergillus fumigatus [44] = assay: Antifungal activity against Aspergillus fumigatus 231 after 24 hrs by broth microdilution method; assay type: functional; details: Aspergillus fumigatus, 231, 24 h
Staphylococcus aureus [45] = assay: Antibacterial activity against Staphylococcus aureus ATCC 6538 after 48 hrs by broth microdilution method; assay type: functional; details: ATCC 6538, 48 h
[46] = Selectivity index, ratio of IC50 for human HepG2 cells to MIC for Mycobacterium tuberculosis; assay type: toxicity; details: read-out: Selectivity Index
[47] = Cytotoxicity against human A431 cells assessed as cell viability at 30 uM after 48 hrs by MTS assay relative to control; assay type: cell-based, A-431; details: read-out: Activity

O=[N+]([O-])c1cc(-c2nnc(SCc3ccc(Br)cc3)o2)cc([N+](=O)[O-])c1
MIC (Klebsiella pneumoniae [1]): > 125 µM
MIC (Pichia kudriavzevii [2]): > 125 µM
MIC (Lichtheimia corymbifera [3]): > 125 µM
MIC [4]: > 125 µM
MIC (Lichtheimia corymbifera [5]): > 125 µM
IC50 (A-431): > 30 µM
viability at 48 h, 30 µM [6]: 143%
MIC [7]: > 125 µM
MIC (Enterococcus sp. [8]): > 125 µM
MIC (Staphylococcus aureus [9]): > 125 µM
MIC (Escherichia coli [10]): > 125 µM
MIC (Escherichia coli [11]): > 125 µM
MIC (Mycobacterium kansasii [12]): 0.06 µM (≈ 0.0262 µg/mL)
MIC (Enterococcus sp. [13]): > 125 µM
MIC (Trichosporon asahii [14]): > 125 µM
MIC (Candida albicans [15]): > 125 µM
MIC (Mycobacterium kansasii [16]): 0.03 µM (≈ 0.0131 µg/mL)
MIC (Klebsiella pneumoniae [17]): > 125 µM
MIC (Candida tropicalis [18]): > 125 µM
MIC (Mycobacterium kansasii [19]): 0.03 µM (≈ 0.0131 µg/mL)
IC50 (HepG2): > 30 µM
viability at 48 h, 30 µM [20]: 114%
MIC (Nakaseomyces glabratus [21]): > 125 µM
MIC (Trichosporon asahii [22]): > 125 µM
MIC (Klebsiella pneumoniae [23]): > 125 µM
MIC (Candida albicans [24]): > 125 µM
MIC (Mycobacterium kansasii [25]): 0.06 µM (≈ 0.0262 µg/mL)
MIC (Pseudomonas aeruginosa [26]): > 125 µM
MIC (Staphylococcus aureus [27]): > 125 µM
IC50 (MDCK): > 30 µM
MIC (Aspergillus fumigatus [28]): > 125 µM
MIC (Mycobacterium kansasii [29]): 0.03 µM (≈ 0.0131 µg/mL)
MIC (Nakaseomyces glabratus [30]): > 125 µM
IC50 (Huh-7): > 30 µM
MIC (Candida tropicalis [31]): > 125 µM
MIC (Mycobacterium avium [32]): 125 µM (≈ 54.7 µg/mL)
MIC (Pseudomonas aeruginosa [33]): > 125 µM
MIC [34]: 0.06 µM (≈ 0.0262 µg/mL)
MIC (Staphylococcus aureus [35]): > 125 µM
MIC (Mycobacterium avium [36]): 125 µM (≈ 54.7 µg/mL)
MIC (Klebsiella pneumoniae [37]): > 125 µM
MIC [38]: > 125 µM
MIC [39]: > 125 µM
MIC (Mycobacterium kansasii [40]): 0.03 µM (≈ 0.0131 µg/mL)
MIC (Pichia kudriavzevii [41]): > 125 µM
viability at 48 h, 30 µM [42]: 113%
MIC [43]: 0.03 µM (≈ 0.0131 µg/mL)
MIC (Aspergillus fumigatus [44]): > 125 µM
MIC (Staphylococcus aureus [45]): > 125 µM
selectivity ratio [46]: > 1000
viability at 48 h, 30 µM [47]: 99%
